Data reported in ChEMBL document CHEMBL1141883 (J Med Chem, 2005).

Assays:
[1] = target: Glycogen synthase kinase-3 (Homo sapiens, UniProt P49840+P49841); assay: Inhibition of glycogen synthase kinase 3; type: protein assay
[2] = target: Cyclin-dependent kinase 1/cyclin B (Homo sapiens, UniProt P06493); assay: Inhibition of cyclin-dependent kinase 1/cyclinB; type: protein-complex assay
[3] = target: Cyclin-dependent kinase 6 (Homo sapiens, UniProt Q00534); assay: Inhibition of human cyclin-dependent kinase 6 complex with a virus-encoded cyclin from herpesvirus saimiri (Vcyclin)
[4] = target: Cyclin-dependent kinase 5/CDK5 activator 1 (Homo sapiens, UniProt Q00535); assay: Inhibition of Cyclin-dependent kinase 5-p25nck5a; type: protein-complex assay
Chain of Cyclin-dependent kinase 5/CDK5 activator 1 (Q00535 whole entry): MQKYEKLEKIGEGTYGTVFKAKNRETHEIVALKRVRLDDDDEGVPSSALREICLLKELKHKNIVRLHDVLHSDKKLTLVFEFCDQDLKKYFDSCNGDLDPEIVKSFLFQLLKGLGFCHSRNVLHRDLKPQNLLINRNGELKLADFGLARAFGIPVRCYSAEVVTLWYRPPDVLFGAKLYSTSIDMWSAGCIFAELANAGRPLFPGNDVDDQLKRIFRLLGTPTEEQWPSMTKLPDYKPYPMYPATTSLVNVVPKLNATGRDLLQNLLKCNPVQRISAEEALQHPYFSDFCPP
Chain of Cyclin-dependent kinase 5/CDK5 activator 1 (Q15078 whole entry, further chain): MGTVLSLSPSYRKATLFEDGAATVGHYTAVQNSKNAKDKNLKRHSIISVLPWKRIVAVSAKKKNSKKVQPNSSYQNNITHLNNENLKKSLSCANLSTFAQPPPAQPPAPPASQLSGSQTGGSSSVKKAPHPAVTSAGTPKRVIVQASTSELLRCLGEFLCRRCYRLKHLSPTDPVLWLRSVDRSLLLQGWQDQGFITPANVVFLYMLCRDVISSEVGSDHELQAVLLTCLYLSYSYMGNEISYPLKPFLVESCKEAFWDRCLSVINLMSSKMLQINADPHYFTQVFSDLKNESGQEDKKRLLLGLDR

Chain of Cyclin-dependent kinase 6 (Q00534 whole entry): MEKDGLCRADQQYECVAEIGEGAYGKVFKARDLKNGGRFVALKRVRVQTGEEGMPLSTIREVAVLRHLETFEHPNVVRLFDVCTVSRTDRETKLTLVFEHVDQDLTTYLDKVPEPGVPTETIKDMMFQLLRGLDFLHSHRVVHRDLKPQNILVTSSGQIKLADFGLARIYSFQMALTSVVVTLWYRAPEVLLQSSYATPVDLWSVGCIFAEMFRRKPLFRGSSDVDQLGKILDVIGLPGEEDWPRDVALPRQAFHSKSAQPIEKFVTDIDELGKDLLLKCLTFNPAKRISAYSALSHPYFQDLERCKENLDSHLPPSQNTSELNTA

SMILES	IC50 [1] [µM]	IC50 [2] [µM]	IC50 [3] [µM]	IC50 [4] [µM]
O=c1cc(-c2ccc(O)cc2)oc2cc(O)cc(O)c12 [APIGENIN]	1.4	4	1.7	1.6
O=c1cc(-c2ccccc2)oc2cc(O)cc(O)c12 [CHRYSIN]	7.2	7.1	6	3.1
O=c1c(O)c(-c2ccc(O)c(O)c2)oc2cc(O)ccc12 [FISETIN]	0.42	0.79		0.57
O=c1c(O)c(-c2ccc(O)cc2)oc2cc(O)cc(O)c12 [KAEMPFEROL]	3.5	41	22	51
O=c1cc(-c2ccc(O)c(O)c2)oc2cc(O)cc(O)c12 [LUTEOLIN]	0.8		> 300	3.8
O=c1c(O)c(-c2ccc(O)c(O)c2)oc2cc(O)cc(O)c12 [QUERCETIN]	2.1	75	25	
